The values below come from patent publication US9221781B2, “Synthesis of polyhydroxy chromenone compounds and their anti-tumor effects” (BEIJING SHENOGEN PHARMA GROUP LTD., priority 2012, dated 2015).

Experiment [1] deals with MDA-MB-231 cells. As to the kind of experiment: CellTiter-Glo Luminescent Cell Viability Assay on ER-negative breast cancer MDA-MB-231 cells in vitro. It counts as cell-based. The conditions noted are these: Homo sapiens, 72 hours, read-out: Inhibition of viability of breast cancer cells IC50, MDA-MB-231 cells. On the procedure: A: CellTiter-Glo® Luminescent Cell Viability Assay on ER-Negative Breast Cancer MDA-MB-231 In Vitro:
MDA-MB-231 cells were maintained at 37° C., in a 5% CO2 atmosphere in DMEM and 10% fetal calf serum. The cells were placed at a density of 6×10^3 cells per well in a 96-well plate. MDA-MB-231 cells were treated with a test compound dissolved in DMSO at the concentration of 0, 0.3 μM, 0.5 μM, 1 μM, 2 μM, 3 μM, 5 μM, 10 μM, 20 μM, 30 μM, 50 μM and 100 μM for 72 hours. Treated cells were examined under CellTiter-Glo® Luminescent Cell Viability Assay Kit (Promega), and luminescence were recorded with Envision.
For orientation: ATP-based viability assays read luminescence as a measure of living cells.

In experiment [2] the test system is K562 cells. Put plainly: Viability of chronic leukemia cells K562 by CellTiter-Glo Luminescent Assay in vitro. It counts as cell-based, human. The conditions noted are these: Homo sapiens, 72 hours, read-out: Inhibition of viability of cells in vitro IC50, K562 cells. As to the method:
A: Detection of Viability of Chronic Leukemia Cells K562 by CellTiter-Glo® Luminescent Assay In Vitro
The chronic leukemia cells K562 from ATCC were maintained in IMDM and 10% fetal calf serum at 37° C. in a 5% CO2 atmosphere. The cells were subseeded in a 96-well culture plate at a cencentration of 6×10^3 cells/well.K562 cells were treated with a test compound dissolved in DMSO at the concentration of 0, 0.3 μM, 0.5 μM, 1 μM, 2 μM, 3 μM, 5 μM, 10 μM, 20 μM, 30 μM, 50 μM and 100 μM for 72 hours. Treated cells were examined by CellTiter-Glo® Luminescent Cell Viability Assay Kit (Promega), and luminescence were recorded with Envision.

The subject of experiment [3] is Daudi cells. Put plainly: Inhibition of human B lymphoma Daudi cells by CellTiter-Glo Luminescent Assay in vitro. The experiment is classed as cell-based. The conditions noted are these: Homo sapiens, 72 hours, read-out: Inhibition of viability of cells in vitro IC50, Daudi cells. On the procedure:
A: Inhibition of Human B Lymphoma Daudi Cells by CellTiter-Glo® Luminescent Assay In Vitro
The Human B Lymphoma Daudi cells from ATCC were maintained in IMDM and 10% fetal calf serum at 37° C. in a 5% CO2 atmosphere. The cells were subseeded in a 96-well culture plate at a concentration of 6×10^3 cells/well. Human B Lymphoma Daudi cells were treated with a test compound dissolved in DMSO at the concentration of 0, 0.3 μM, 0.5 μM, 1 μM, 2 μM, 3 μM, 10 μM, 20 μM, 30 μM, 50 μM and 100 μM for 72 hours. Treated cells were examined by CeliTiter-Glo® Luminescent Cell Viability Assay Kit (Promega), and luminescence were recorded with Envision.

Experiment [4] relates to HL-60 cells. As to the kind of experiment: Inhibition of growth of acute myeloblastic leukemia HL-60 cells by MTT method. The experiment is classed as cell-based, human. The conditions noted are these: Homo sapiens, 10^−6M, 72 hours, read-out: The inhibition percentage of cell proliferation by the compounds with a concentration of 10^−6M, HL-60 cells. On the procedure: A: Inhibition of Growth of Acute Myeloblastic Leukemia HL-60 Cells by the Compounds Detected by MTT Method
The acute myeloblastic leukemia HL-60 cells from ATCC were maintained in IMDM and 10% fetal calf serum at 37° C. in a 5% CO2 atmosphere. The cells were subseeded in a 96-well culture plate at a concentration of 6×10^3 cells/well. HL-60 cells were treated with a test compound dissolved in DMSO at the concentration of 0, 10^−4M, 10^−5M, 10^−6M, 10^−7M, 10^−8M for 72 hours. OD value was tested by MTT method, and the inhibition ratio was calculated.

Experiment [5] has as its system gastric cancer BGC-823 cells. As to the kind of experiment: Inhibition of gastric cancer cell BGC-823 in vitro by MTT method. It counts as cell-based. To be noted: Homo sapiens; BGC-823, MTT, 72 hours, FIG. 4; read-out: IC50, in vitro inhibition on cell line BGC-823 of gastric cancer. On the procedure:
A: Inhibition of Gastric Cancer Cell BGC-823 In Vitro by the Compounds by MTT Method
The gastric cancer BGC-823 cells were subseeded in a 96-well culture plate at a concentration of 3×10^3 cells/well and maintained in phenol red free DMEM medium containing 2.5% CS-FBS at 37° C. in a 5% CO2 atmosphere. BGC-823 cells were treated with a test compound dissolved in DMSO at the concentration of 0, 1, 2, 4, 8, 10 and 20 μM for 72 hours. OD value was tested by MTT method, and the inhibition percentage was calculated.
(Tetrazolium assays rely on reduction of a dye to a coloured formazan, in cell work by metabolically active cells.)

Experiment [6] deals with colon cancer LS174T cells. Put plainly: Inhibition of colon cancer cells LS174T in vitro by MTT method. The experiment is classed as cell-based. The conditions noted are these: Homo sapiens, 72 hours, FIG. 6, read-out: IC50, in vitro inhibition on cell line LS174T of colon carcinoma. On the procedure:
A: Inhibition of Colon Cancer Cells LS174T In Vitro by the Compounds by MTT Method
The colon cancer LS174T cells were subseeded in a 96-well culture plate at a concentration of 4.5×10^3 cells/well and maintained in phenol red free 1640 medium containing 2.5% CS-FBS at 37° C. in a 5% CO2 atmosphere. LS174T cells were treated with a test compound dissolved in DMSO at the concentration of 0, 1, 2, 4, 8, 10 and 20 μM for 72 hours. OD value was tested by MTT method, and the inhibition percentage was calculated.

Experiment [7] concerns human breast cancer BCAP-37 xenograft tumor. As to the kind of experiment: Inhibition of growth of human breast cancer BCAP-37 cells xenograft tumor in nude mice. It counts as in vivo. The conditions noted are these: BCAP-37 tumor bearing nude mice, 0.7 mg/mouse/day, 20 days of continuous administration, FIG. 9. On the procedure:
Nude mice with breast cancer xenografts were treated with the test compounds to test their effect on inhibiting tumor growth. Tumor tissues were taken from nude mice bearing BCAP-37 breast cancer and cut into small pieces. Several pieces of the tumor tissues were implanted into the armpit under the right front limb of female nude mice. After the implantation, the mice are fed with E2β solution once a day at the dosage of 7 μg per mouse for 6 days to stimulate growth of tumor in the experiment mice. Starting on the seventh day, the mice were intragastric administered with the test solution containing the compounds and corn oil at the dosage of 35 mg/kg. Tamoxifen was used as a positive control. Corn oil was used as a negative control. The test solution was prepared by dispersing test compound in corn oil solution. (20 mg/mL). […] Then the mice were sacrificed and the tumor tissues were dissected and weighed. The tumor growth inhibition rate was a percentage calculated using the formula: tumor growth inhibition rate=(average weight of the tumor in the negative control−average weight of the tumor treated with test compound)/average weight of the tumor in the negative control.
On the technique in general: A xenograft is tissue or cells of one species grown in another, often human tumour cells in immunodeficient mice.

Structures are written as SMILES.

`CC(C)=CCc1c(O)cc(O)c2c(=O)c(O)c(-c3ccc(C(F)(F)F)cc3)oc12` [Compound 1, 2-(4-trifluoromethylphenyl)-3,5,7-trihydroxy-8-(3-methyl-2-buten-1-yl)-4H-chromen-4-one]: the IC50 – broadly, the concentration that inhibits the measured activity by half – in experiment [1] was 1.07 µM; in experiment [2] it was 1.03 µM; in experiment [3] it was 0.824 µM; in experiment [5] it was 1 to 4 µM; in experiment [6] it was 1 to 4 µM. Further, the inhibition at 1 µM in experiment [4] stood at 60.7%. In addition, the “average tumor weight, inhibition on the tumors” value in experiment [7] was “inhibition of compound on the tumors”.
